Laboratory results from the METLIN SMRT retention time set (Domingo-Almenara et al. 2019).

experiment: gradient 5% acetonitrile 3 min, to 50% in 2 min, to 85% in 15 min, held 3 min, 100 µL/min; conditions: column: Zorbax Extend-C18 2.1 x 50 mm; eluents: water / acetonitrile, 0.1% formic acid
In short: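 Data were gathered over 3 months by HPLC coupled to a quadrupole time-of-flight mass spectrometer, operated in positive and negative ionization mode. Mixtures of ~100 pure standards ran on a Zorbax Extend-C18 column (2.1 × 50 mm, 1.8 μm) at 100 μL/min, with water and acetonitrile each containing 0.1% formic acid and dead and dwell volumes of 40 μL and 900 μL. Retention time was read from adduct peaks picked by computer and checked manually.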

SMILES	RP-LC retention time [s]
COc1cccc(CNC(=O)Nc2c(-c3ccc(F)cc3)nc3ccccn23)c1	652
CNC(=O)N1CCC(OC(C)=O)CC1	583
CCOC(=O)C1CCC(CNC(=O)Nc2ccc3nc(N4CCN(C)CC4)cc(C)c3c2)CC1 (centres undefined)	584
CCOc1ccccc1C(=O)n1nc(C)c(S(=O)(=O)N2CCCC2)c1C	1040
CC(C)C(=O)Nc1ccc(CCc2nc3ccc(C(=O)NC4CCCC4)cc3[nH]2)cc1	650
O=C(Nc1ccnn1Cc1ccco1)c1cc(=O)c2cc(Cl)ccc2o1	830
COc1ccccc1CCN1CC(=O)N(c2ccc(C)c(C)c2)[C@@H]2CS(=O)(=O)C[C@@H]21	897
CC(C)n1c(=O)oc2cc(-c3noc(-c4cc(F)ccc4Cl)n3)ccc21	1230
Cc1ccc(N(C)S(=O)(=O)c2ccccc2-c2nc(-c3ccccc3)no2)cc1	1200
COc1ccc(Cl)cc1NC(=O)NCCn1c(-c2ccncc2)nc2cccnc21	659
COC(=O)c1ccccc1NC(=O)CN1C(=O)CN=C(c2ccccc2)c2ccccc21	958
Cc1ccc2nc(-c3ccc(O)cc3)c(Nc3ccc4c(c3)OCO4)n2c1	633
CCn1c(=O)n(CC)c2cc(S(=O)(=O)c3ccccc3)c(NC(C)=O)cc21	715
COC(=O)c1ccccc1NC(=O)CSc1nc2ccccc2s1	1030
COc1ccc(Cn2c(C)c(CNCc3ccccn3)c(C(=O)O)c2C)cc1	690
Cc1nc(-c2csc(S(=O)(=O)N3CCC(C(=O)NC4CCCCC4)CC3)c2)no1	879
CCCC(CCC)C(=O)N1CCCN(C2=NS(=O)(=O)C(c3ccc(C)cc3)=C2C)CC1	1010
CN1C(=O)C2(CCN(C(=O)c3ccccc3Cl)C2)c2ccccc21 (centres undefined)	787
CCn1cc(CCN2CCC(C(=O)Nc3ccc4c(c3)OCCO4)CC2)c2cccnc21	626
O=c1[nH]cc(S(=O)(=O)N2CCCC2)c(=O)[nH]1	568
Cc1ccccc1NC(=O)Cc1cccn1-c1ccc(Cl)cc1	1040
CC(C)C(=O)N1CCCC(c2nc(CNC(=O)C3CCC3)cs2)C1 (centres undefined)	679
O=C(CC1c2ncccc2C(=O)N1c1ccccc1)N1CCN(C2CCCCC2)CC1 (centres undefined)	591

SMILES	RP-LC retention time [s]
COc1ccc(OC)c(NC(=O)Cn2c(N3CCOCC3)nc(C)cc2=O)c1	695
CCOc1ccc(CCNC(=O)c2cc(S(=O)(=O)N3CCCCC3)c(C)n2C)cc1OCC	1010
COc1ccc(-c2noc(CN3C(=O)COc4ccc(Cl)cc43)n2)c(OC)c1	962
CCC(c1cccs1)N1C(=O)[C@H]2CN(S(=O)(=O)c3cc(F)cc(F)c3)C[C@H]2C1=O (some centres undefined)	1040
O=C(NCC1CCN(c2cc(-c3cccnc3)[nH]n2)CC1)c1ccc2c(c1)OCO2	600
CC1CCN(C(=O)c2cc(S(=O)(=O)N(C)CC(=O)NC(C)C)cn2C)CC1	723
O=C(Cn1c(=O)oc2ccccc21)NCC1CCN(C(=O)c2ccccc2F)CC1	671
COc1ccc(NC(=O)c2noc3c2CC(C)CC3)c(OC)c1 (centres undefined)	1170
CN(CCc1noc(-c2ccc(F)cc2)n1)C(=O)Nc1ccccc1Cl	983
Cc1nn2c(CNS(=O)(=O)c3ccc(Cl)cc3C)c(-c3ccccc3)nc2s1	973
O=C(Cn1ccc2ccc(N3CCOCC3)nc21)N1CCN(c2ccccc2Cl)CC1	1060
CCCNC(=O)C1CCCN(c2ccc(SCC(=O)Nc3c(C)cccc3CC)nn2)C1 (centres undefined)	650
COCCNC(=O)C1CCCN(c2nn3cc(-c4ccc(F)cc4)nc3s2)C1 (centres undefined)	756
O=C(CSc1ccc(-c2cccnc2)nn1)NCC1CCCO1 (centres undefined)	548
Cn1nccc1C(=O)N1CCC(NS(=O)(=O)c2ccc(Cl)cc2)CC1	704
COc1cc(CN2C[C@@H]3C(=O)N(Cc4ccc5c(c4)OCO5)C(=O)[C@@H]3C2)cc(OC)c1	741
Cn1c(C2CCN(C(=O)c3cccc(Cl)c3)C2)nc2ccncc21 (centres undefined)	554
O=C(Nc1cccc(C(F)(F)F)c1)Nc1nc(-c2ccccc2)cs1	1140
CCCN(c1cccc(Cl)c1)c1nc(C(=O)OCC)nc2ccccc12	1200
Cc1ccc2ncn(C3CCN(S(=O)(=O)c4ccc(C(C)C)cc4)CC3)c(=O)c2c1	1050
CC(=O)Cc1nsc(NC(=O)c2ccc(C(C)(C)C)cc2)n1	874
COCC1CN(S(=O)(=O)c2cccc(C#N)c2)CCC1(F)F (centres undefined)	892
CCc1ccc(NC(=O)N2CCC(n3cnc4ccc(Cl)cc4c3=O)CC2)cc1	921

SMILES	RP-LC retention time [s]
CN1C(=O)C(C)(C(=O)Nc2cccc(Cl)c2)Oc2cccnc21 (centres undefined)	889
N#Cc1ccc(C(=O)N2CCCC2c2nc(-c3cccc(C(F)(F)F)c3)no2)c(F)c1 (centres undefined)	1060
CCn1nc(C)c(CCN(C)C(=O)c2cc3c(s2)N(C)CCCC3)c1C	743
O=C(NCC1CCCO1)c1ccc(CN2CCN(Cc3ccccc3)C(=O)C2=O)cc1 (centres undefined)	669
COc1ccc(-c2cc3n(n2)CCCN(S(=O)(=O)CCc2ccccc2)C3)cc1	983
COc1ccc(-c2nc(CSc3nc4ccccc4n4c(C)nnc34)c(C)o2)cc1	854
CCOC(=O)c1noc2nc(C)nc(Nc3ccc(OC)cc3)c12	938
COc1ccc(S(=O)(=O)N2CCN=C2SCc2cccnc2)cc1	594
CCC(=O)N1CCc2cc(S(=O)(=O)CCC(=O)N3CCN(c4ccc(C)cc4)C(C)C3)ccc21 (centres undefined)	704
CCc1cccc(NC(=O)Cn2nc3cc(C)nc(Nc4ccccc4C)n3c2=O)c1	711
CC1CCCN(C(=O)c2cn(-c3ccc(-c4nc(C(C)(C)C)no4)cn3)cn2)C1 (centres undefined)	1080
O=C(Cn1ncccc1=O)N1CCN(c2ccc(-c3ccccn3)nn2)CC1	537
CCc1nc(-c2cc(S(=O)(=O)NCC(=O)NC3CCCCC3)c(C)s2)no1	906
CCC1(C(=O)OC)CCc2c(cc(OC)c3ccccc23)C1=O (centres undefined)	1250
O=C(Cn1ccc2ccn(Cc3ccccc3)c2c1=O)NCc1cccs1	872
N#Cc1ccc(CN2CC(n3cc(COc4ccc(F)cc4)nn3)C2)cc1	678
Cc1ccc(NC(=O)N2CCC(n3cnc4c(C)cccc4c3=O)CC2)c(C)c1	835
COc1cccc(CNC(=O)C2(C)CCCN(C(=O)NCCc3ccccc3)C2)c1 (centres undefined)	855
CC1(C)C(=O)NCCN1C(=O)c1cccc(Br)c1	649
CCOC(=O)c1nc(NCCCOC)c2c(-c3ccc(F)cc3)noc2n1	944
Cc1ccc2nc(C3CN(C(=O)c4c(-c5ccccc5Cl)noc4C)C3)[nH]c2c1	598
CN(CCNC(=O)c1ncoc1-c1ccco1)Cc1ccccc1	630
O=C(CCC1CCN(c2cc(NC3CC3)ncn2)CC1)NCc1ccccn1	541

SMILES	RP-LC retention time [s]
COc1ccc(-c2noc(CN3C(=O)COc4cc(C)ccc43)n2)cc1	1030
CCc1nncn1C1CCN(C(=O)c2cc(F)ccc2F)CC1	604
CC(C)NC(=O)c1ccc(-c2nc3cc(NS(=O)(=O)CCc4ccccc4)ccc3n2C)cc1	694
COc1cccc(CNC(=O)c2cc3c(-c4cccs4)nn(-c4ccccc4)c3n2C)c1	1120
O=C(O)c1ccc(S(=O)(=O)N2CCc3ccccc3C2)cc1	773
CC1=NS(=O)(=O)N(C)C=C1C(=O)OCc1cc(F)cc(F)c1	934
Cc1nc2c(ccc3nc(NC(=O)c4ccc(N5C(=O)CCC5=O)cc4)sc32)s1	717
O=C(Cc1ccc(F)cc1)N[C@H](Cc1ccccc1)C(=O)NCc1cscn1	741
Cc1cc(SCC(=O)N2CCCc3ccccc32)nc(=O)[nH]1	677
COc1ccc(C2Cn3cnc(C(=O)N4CCC(C(=O)NCC5CCCO5)CC4)c3CO2)cc1 (centres undefined)	655
OC(COc1ccc(Cl)cc1)CN1CCN(c2cccc(Cl)c2)CC1 (centres undefined)	866
CCn1c(=O)c(SCC(=O)N2CCN(c3ccccn3)CC2)nc2ccccc21	612
COc1ccc(S(=O)(=O)c2ccc(NCc3cccc(OC)c3)nn2)cc1	860
COc1ccc(-c2nc3ccc(Cl)cn3c2Nc2ccc3c(c2)OCO3)cc1	748
CC(NC(=O)Cc1ccc(Cl)cc1)C(=O)Nc1nc2ccccc2[nH]1 (centres undefined)	680
Cc1ccc2nc(NC(=O)CSc3nn4c(=O)c(C)nnc4s3)sc2c1	704
Cc1ccc(NC(=O)C(C)C2CCN(C(=O)Nc3ccc(Cl)cc3)CC2)cc1 (centres undefined)	963
CCCC(=O)n1nc(C)c(S(=O)(=O)N2CCOCC2)c1C	954
COc1cccc(N2CC(NC(=O)c3ccccc3C(F)(F)F)CC2=O)c1 (centres undefined)	709
CC(=O)N1CCc2cc(N3CC(C(=O)Nc4ccccc4)CC3=O)ccc21 (centres undefined)	677
